Source: US7058616B1, “Method and system for predicting resistance of a disease to a therapeutic agent using a neural network” (Virco Bvba, priority 2000, dated 2006)

Tests used:
HIV-1 [1] = assay: MT-4 cell viral cytopathic effect protection assay, phenotypic susceptibility of patient recombinant virus; assay type: cell-based
Procedure: Phenotypic susceptibility was determined using a MT-4 cell viral cytopathic effect protection assay. See, e.g., Kashiwase et al., Chemotherapy 45(1):48–55 (1999), expressly incorporated herein by reference; Larder et al., Antimicrob. Agents Chemother. 43(8):1961–1967 (1999).

HIV-1 [2] = conditions: in vitro; cited from earlier work

Compound: CC(C)CN(C[C@@H](O)[C@H](Cc1ccccc1)NC(=O)O[C@H]1CCOC1)S(=O)(=O)c1ccc(N)cc1 [VX-478]
- actual phenotype resistance level (HIV-1 [1]; PI test sample 1): S/S (A fold resistance of less than or equal to 4 is considered to be ‘sensitive’)
- actual phenotype resistance level (HIV-1 [1]; PI test sample 2): S/S (A fold resistance of less than or equal to 4 is considered to be ‘sensitive’)
- actual phenotype resistance level (HIV-1 [1]; PI test sample 3): S/S (A fold resistance of less than or equal to 4 is considered to be ‘sensitive’)
- actual phenotype resistance level (HIV-1 [1]; PI test sample 4): I/I (greater than 4 and less than 10 is considered to be ‘intermediate’)
- actual phenotype resistance level (HIV-1 [1]; PI test sample 6): S/S (A fold resistance of less than or equal to 4 is considered to be ‘sensitive’)
- actual phenotype resistance level (HIV-1 [1]; PI test sample 7): S/S (A fold resistance of less than or equal to 4 is considered to be ‘sensitive’)
- actual phenotype resistance level (HIV-1 [1]; PI test sample 8): S/S (A fold resistance of less than or equal to 4 is considered to be ‘sensitive’)
- actual phenotype resistance level (HIV-1 [1]; PI test sample 9): S/S (A fold resistance of less than or equal to 4 is considered to be ‘sensitive’)
- actual phenotype resistance level (HIV-1 [1]; PI test sample 10): S/S (A fold resistance of less than or equal to 4 is considered to be ‘sensitive’)
- actual phenotype resistance level (HIV-1 [1]; PI test sample 11): S/S (A fold resistance of less than or equal to 4 is considered to be ‘sensitive’)
- actual phenotype resistance level (HIV-1 [1]; PI test sample 12): S/S (A fold resistance of less than or equal to 4 is considered to be ‘sensitive’)
- actual phenotype resistance level (HIV-1 [1]; PI test sample 13): I/I (greater than 4 and less than 10 is considered to be ‘intermediate’)
- actual phenotype resistance level (HIV-1 [1]; PI test sample 14): S/S (A fold resistance of less than or equal to 4 is considered to be ‘sensitive’)
- actual phenotype resistance level (HIV-1 [1]; PI test sample 15): S/S (A fold resistance of less than or equal to 4 is considered to be ‘sensitive’)
- actual phenotype resistance level (HIV-1 [1]; PI test sample 16): R/R (if the value is greater than 10, it is considered to be ‘resistant’)
- actual phenotype resistance level (HIV-1 [1]; PI test sample 18): S/S (A fold resistance of less than or equal to 4 is considered to be ‘sensitive’)
- actual phenotype resistance level (HIV-1 [1]; PI test sample 19): S/S (A fold resistance of less than or equal to 4 is considered to be ‘sensitive’)
- actual phenotype resistance level (HIV-1 [1]; PI test sample 20): S/S (A fold resistance of less than or equal to 4 is considered to be ‘sensitive’)
- actual phenotype resistance level (HIV-1 [1]; PI test sample 21): S/S (A fold resistance of less than or equal to 4 is considered to be ‘sensitive’)
- actual phenotype resistance level (HIV-1 [1]; PI test sample 22): S/S (A fold resistance of less than or equal to 4 is considered to be ‘sensitive’)
- actual phenotype resistance level (HIV-1 [1]; PI test sample 23, listed as Amprenavir): R/R (if the value is greater than 10, it is considered to be ‘resistant’)
- actual phenotype resistance level (HIV-1 [1]; PI test sample 24): R/R (if the value is greater than 10, it is considered to be ‘resistant’)
- actual phenotype resistance level (HIV-1 [1]; PI test sample 26): S/S (A fold resistance of less than or equal to 4 is considered to be ‘sensitive’)
- actual phenotype resistance level (HIV-1 [1]; PI test sample 30): I/I (greater than 4 and less than 10 is considered to be ‘intermediate’)
- actual phenotype resistance level (HIV-1 [1]; PI test sample 31, listed as Amprenavir): R/R (if the value is greater than 10, it is considered to be ‘resistant’)
- actual phenotype resistance level (HIV-1 [1]; PI test sample 36, listed as APV): I/I (greater than 4 and less than 10 is considered to be ‘intermediate’)
- actual phenotype resistance level (HIV-1 [1]; PI test sample 38, listed as Amprenavir): I/I (greater than 4 and less than 10 is considered to be ‘intermediate’)
- actual phenotype resistance level (HIV-1 [1]; PI test sample 39): I/I (greater than 4 and less than 10 is considered to be ‘intermediate’)
- actual phenotype resistance level (HIV-1 [1]; PI test sample 44): I/I (greater than 4 and less than 10 is considered to be ‘intermediate’)
- actual phenotype resistance level (HIV-1 [1]; PI test sample 46): I/I (greater than 4 and less than 10 is considered to be ‘intermediate’)
- actual phenotype resistance level (HIV-1 [1]; PI test sample 49): I/I (greater than 4 and less than 10 is considered to be ‘intermediate’)
- actual phenotype resistance level (HIV-1 [1]; Table 3 testing sample 1): S/S (A fold resistance of less than or equal to 4 is considered to be “sensitive,”)
- actual phenotype resistance level (HIV-1 [1]; Table 3 testing sample 2): S (A fold resistance of less than or equal to 4 is considered to be “sensitive,”)
- actual phenotype resistance level (HIV-1 [1]; Table 3 testing sample 3): S/S (A fold resistance of less than or equal to 4 is considered to be “sensitive,”)
- actual phenotype resistance level (HIV-1 [1]; Table 3 testing sample 6): S/S (A fold resistance of less than or equal to 4 is considered to be “sensitive,”)
- actual phenotype resistance level (HIV-1 [1]; Table 3 testing sample 7): S/S (A fold resistance of less than or equal to 4 is considered to be “sensitive,”)
- actual phenotype resistance level (HIV-1 [1]; Table 3 testing sample 8): S/S (A fold resistance of less than or equal to 4 is considered to be “sensitive,”)
- actual phenotype resistance level (HIV-1 [1]; Table 3 testing sample 9): S/S (A fold resistance of less than or equal to 4 is considered to be “sensitive,”)
- actual phenotype resistance level (HIV-1 [1]; Table 3 testing sample 10): S/S (A fold resistance of less than or equal to 4 is considered to be “sensitive,”)
- actual phenotype (HIV-1 [1]; Table 13/14 sample 4: 10I,46I,71V,77I,84V,90M, 63P,93L): S (A fold resistance of less than or equal to 4 is considered to be ‘sensitive’)
- actual phenotype (HIV-1 [1]; Table 13/14 sample 12: 10I,36I,46I,84V,90M, 20I,63P,73C,85V): R (if the value is greater than 10, it is considered to be ‘resistant’)
- actual phenotype (HIV-1 [1]; Table 13/14 sample 15: 46I,84V,90M, 20I,63Q): I (greater than 4 and less than 10 is considered to be ‘intermediate’)
- actual phenotype (HIV-1 [1]; Table 13/14 sample 16: 10I,46I,77I,84V,90M, 63P,73T,93L): S (A fold resistance of less than or equal to 4 is considered to be ‘sensitive’)
- actual phenotype (HIV-1 [1]; Table 13/14 sample 22: 10I,20R,36I,71V,73S,84V,90M, 13V,63P): I (greater than 4 and less than 10 is considered to be ‘intermediate’)
- actual phenotype (HIV-1 [1]; Table 13/14 sample 23: 10I,46I,77I,90M, 20I,63P,73T): S (A fold resistance of less than or equal to 4 is considered to be ‘sensitive’)
- Effect of N88S mutation on susceptibility (HIV-1 [2]): in vitro hypersensitivity
